Each molecule was assayed against human A2A receptor (Homo sapiens (Human), UniProt P29274) (assay: A2A competition binding assay using Scintillation Proximity technology). Conditions: 0.25 μg of membranes from HEK293 cells expressing the human A2a receptor per well; 0.5 nM tritiated radioligand; Cheng-Prusoff.
Procedure: Binding affinities of compounds of the invention for the human A2A receptor were determined in a competition binding assay using Scintillation Proximity technology. Thus, 1^μg (^ denotes 1 μg of membrane/well), or preferably 0.25 μg of membranes from HEK293 cells expressing the human A2a receptor were incubated with a compound of the invention at concentrations ranging from 3000 nM to 0.15 nM in a reaction mixture containing also 0.5 nM of a tritiated form of 5-amino-7-[2-phenethyl]-2-(furan-2-yl)-7H-pyrazolo[4,3-e][1,2,4]triazolo[1,5-c]pyrimidine (the tritiated compound) and 25 μg of wheat germ agglutin-coated yttrium silicate SPA beads for one hour at room temperature with agitation. The beads were then allowed to settle to the bottom of the wells for 1 hr, after which the membrane-associated radioactivity was determined by scintillation counting in a TopCount microplate reader. Ki values were determined using the Cheng-Prusoff equation.
HEK293 cells expressing the human, rat, dog or monkey adenosine 2a receptor (Purchased from Perkin-Elmer # RBHA2AM400UA).
The Tritiated compound was prepared in-house by MRL Radiochemistry according to published methods.
Wheat germ agglutinin-coated yttrium silicate SPA beads (GE Healthcare #RPNQ0023). Dilute to 25 mg/mL in assay buffer.
Assay Buffer was prepared in house: Dulbecco's calcium and magnesium free phosphate buffered saline+10 mM MgCl2
Adenosine deaminase from calf intestine, 10 mg/2 mL (Roche #10 102 105 001).
A2A antagonist standard (9-chloro-1-(2-furanyl)-[1,2,4]triazolo[1,5-c]quinazolin-5-amine from Tocris Bioscience)
Make eight 1:3 serial dilutions in 100% DMSO from a 3 mM compound stock
Transfer 50 nL of compound into a 384-well OptiPlate (Perkin Elmer).
Typically, final concentrations of compound used in the assay ranged from 3000 nM to 0.152 nM.
Dilute a solution of the Tritiated compound to 1.25 nM in assay buffer. This a 2.5× solution. The final concentration in the assay is 0.5 nM. Calculate the concentration by counting two 5 μL aliquots.
Use *1 ug or preferrably 0.25 ug of membrane/well. Dilute membranes to 9.7 μg/ml in assay buffer. Treat with 20 ug/ml adenosine deaminase (ADA) for 15 minutes at room temperature to degrade endogenous adenosine.
Use 25 μg/well wheat germ agglutinin-coated yttrium silicate SPA beads.
Mix ADA-treated membranes and SPA beads together for 30 min prior to assay.
To the Perkin-Elmer Optiplate-384 containing the compound titration add 20 μL of 2.5× solution of the Tritiated compound and 30 μL of the membrane-bead mixture. Incubate for one hour at room temperature with agitation.
Include total binding (assay buffer+1% DMSO) and non-specific binding (CGS15943, 1 μM) wells.
Allow the beads to settle for one hour.
A curve fitting program (i.e., Prism, Activity Base, Chemcart) is used to determine the EC50. The Ki value is calculated using the Cheng-Prusoff equation. Ki=EC50/(1+(radioligand concentration/Kd)) Counting and Calculations
Counting and calculations were performed as described within the “A2A Activity Binding of Compounds of the Invention” section. Using the foregoing methods, the following results were obtained using compounds of the invention described herein. Each example compound tested is reported in the following format: Example number: A2A Ki (nM) selectivity.

human A2A receptor, sequence (P29274 whole entry): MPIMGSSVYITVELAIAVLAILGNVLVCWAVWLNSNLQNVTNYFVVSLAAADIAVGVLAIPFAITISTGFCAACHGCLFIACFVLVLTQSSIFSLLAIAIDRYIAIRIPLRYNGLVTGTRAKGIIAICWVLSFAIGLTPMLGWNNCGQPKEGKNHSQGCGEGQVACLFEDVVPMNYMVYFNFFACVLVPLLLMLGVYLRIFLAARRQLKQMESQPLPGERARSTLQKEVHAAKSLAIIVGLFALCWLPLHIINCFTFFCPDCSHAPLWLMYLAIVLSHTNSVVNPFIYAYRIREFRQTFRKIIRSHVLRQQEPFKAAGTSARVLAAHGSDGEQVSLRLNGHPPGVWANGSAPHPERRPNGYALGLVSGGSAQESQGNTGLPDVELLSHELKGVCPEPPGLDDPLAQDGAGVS

Row | Compound | Ki
1 | COc1cccc2c1nc(N)n1nc([C@@H]3CCCN(CCC(F)(F)F)C3)nc21 [Example 1, (R)-7-methoxy-2-(1-(3,3,3-trifluoropropyl)piperidin-3-yl)-[1,2,4]triazolo[1,5-d]quinazolin-5-amine] | 0.6 nM
2 | COc1cccc2c1nc(N)n1nc([C@@H]3CCCN(CC(F)F)C3)nc21 [Example 3, (R)-2-(1-(2,2-difluoroethyl)piperidin-3-yl)-7-methoxy-[1,2,4]triazolo[1,5-c]quinazolin-5-amine] | 0.4 nM
3 | COCCN1CCC[C@@H](c2nc3c4cccc(OC)c4nc(N)n3n2)C1 [Example 6, (R)-7-methoxy-2-(1-(2-methoxyethyl)piperidin-3-yl)-[1,2,4]triazolo[1,5-c]quinazolin-5-amine] | 3.1 nM
4 | COc1cccc2c1nc(N)n1nc([C@@H]3CCCN(CC4(C)CC4)C3)nc21 [Example 10, (R)-7-methoxy-2-(1-((1-methylcyclopropyl)methyl)piperidin-3-yl)-[1,2,4]triazolo[1,5-c]quinazolin-5-amine] | 20 nM
5 | COc1cccc2c1nc(N)n1nc([C@@H]3CCCN(CCC(F)(F)C(F)(F)F)C3)nc21 [Example 11, (R)-7-methoxy-2-(1-(3,3,4,4,4-pentafluorobutyl)piperidin-3-yl)-[1,2,4]triazolo[1,5-c]quinazolin-5-amine] | 0.4 nM
6 | COc1cccc2c1nc(N)n1nc([C@H]3CCCN(CCC(F)(F)F)C3)nc21 [Example 12, (S)-7-methoxy-2-(1-(3,3,3-trifluoropropyl)piperidin-3-yl)-[1,2,4]triazolo[1,5-c]quinazolin-5-amine] | 14 nM
7 | COc1cccc2c1nc(N)n1nc([C@@H]3CCCN(CCN4CCOCC4)C3)nc21 [Example 15, (R)-7-methoxy-2-(1-(2-morpholinoethyl)piperidin-3-yl)-[1,2,4]triazolo[1,5-c]quinazolin-5-amine] | 1.5 nM
8 | COc1cccc2c1nc(N)n1nc([C@@H]3CCCN(CC(F)(F)F)C3)nc21 [Example 23, (R)-7-methoxy-2-(1-(2,2,2-trifluoroethyl)piperidin-3-yl)-[1,2,4]triazolo[1,5-c]quinazolin-5-amine] | 0.8 nM

Second part, the molecule after the results:

Row | Ki | Compound
9 | 0.3 nM | COc1cccc2c1nc(N)n1nc([C@@H]3CCCN(CC(C(F)(F)F)C(F)(F)F)C3)nc21 [Example 2, (R)-7-methoxy-2-(1-(3,3,3-trifluoro-2-(trifluoromethyl)propyl)piperidin-3-yl)-[1,2,4]triazolo[1,5-c]quinazolin-5-amine]
10 | 5.4 nM | COc1cccc2c1nc(N)n1nc([C@@H]3CCCN(CCN(C)C)C3)nc21 [Example 4, (R)-2-(1-(2-(dimethylamino)ethyl)piperidin-3-yl)-7-methoxy-[1,2,4]triazolo[1,5-c]quinazolin-5-amine]
11 | 93 nM | COc1cccc2c1nc(N)n1nc([C@@H]3CCCNC3)nc21 [Example 13, (R)-7-methoxy-2-(piperidin-3-yl)-[1,2,4]triazolo[1,5-c]quinazolin-5-amine]
12 | 6.9 nM | COc1cccc2c1nc(N)n1nc([C@@H]3CCCN(CCC4CC4)C3)nc21 [Example 14, (R)-2-(1-(2-cyclopropylethyl)piperidin-3-yl)-7-methoxy-[1,2,4]triazol[1,5-c]quinazolin-5-amine]
13 | 0.7 nM | COc1cccc2c1nc(N)n1nc([C@@H]3CCCN(CC4CC(F)(F)C4)C3)nc21 [Example 17, (R)-2-(1-((3,3-difluorocyclobutyl)methyl)piperidin-3-yl)-7-methoxy-[1,2,4]triazolo[1,5-c]quinazolin-5-amine]
14 | 3 nM | COc1cccc2c1nc(N)n1nc([C@@H]3CCCN(CC4(C)COC4)C3)nc21 [Example 18, (R)-7-methoxy-2-(1-((3-methyloxetan-3-yl)methyl)piperidin-3-yl)-[1,2,4]triazolo[1,5-d]quinazolin-5-amine]
15 | 1.2 nM | Nc1nc2c(OC(F)F)cccc2c2nc([C@@H]3CCCN(CC(F)F)C3)nn12 [Example 25, (R)-2-(1-(2,2-difluoroethyl)piperidin-3-yl)-7-(difluoromethoxy)-[1,2,4]triazolo[1,5-c]quinazolin-5-amine]
16 | 1.3 nM | Nc1nc2cc(Cl)ccc2c2nc([C@@H]3CCCN(CC(F)F)C3)nn12 [Example 26, (R)-8-chloro-2-(1-(2,2-difluoroethyl)piperidin-3-yl)-[1,2,4]triazolo[1,5-c]quinazolin-5-amine]
17 | 11 nM | Nc1nc2ccccc2c2nc([C@@H]3CCCN(CC(F)F)C3)nn12 [Example 28, (R)-2-(1-(2,2-difluoroethyl)piperidin-3-yl)-[1,2,4]triazolo[1,5-c]quinazolin-5-amine]
18 | 33 nM | CCC(C)(C)N1CCC[C@@H](c2nc3c4cccc(OC)c4nc(N)n3n2)C1 [Example 31, (R)-7-methoxy-2-(1-(tert-pentyl)piperidin-3-yl)-[1,2,4]triazolo[1,5-c]quinazolin-5-amine]

Same assay, conditions: values marked ^: 1 μg of membrane/well (HEK293 cells expressing the human A2a receptor); 0.5 nM tritiated radioligand; Cheng-Prusoff

Row | Compound | Ki
19 | CCN1CCC[C@@H](c2nc3c4cccc(OC)c4nc(N)n3n2)C1 [Example 5, (R)-2-(1-ethylpiperidin-3-yl)-7-methoxy-[1,2,4]triazolo[1,5-c]quinazolin-5-amine] | 34 nM
20 | CCCCN1CCC[C@@H](c2nc3c4cccc(OC)c4nc(N)n3n2)C1 [Example 7, (R)-2-(1-butylpiperidin-3-yl)-7-methoxy-[1,2,4]triazolo[1,5-c]quinazolin-5-amine] | 29 nM
21 | COc1cccc2c1nc(N)n1nc([C@@H]3CCCN(CCCC(F)(F)F)C3)nc21 [Example 16, (R)-7-methoxy-2-(1-(4,4,4-trifluorobutyl)piperidin-3-yl)-[1,2,4]triazolo[1,5-c]quinazolin-5-amine] | 7.6 nM
22 | COc1cccc2c1nc(N)n1nc([C@@H]3CCCN(c4nncs4)C3)nc21 [Example 20, (R)-2-(1-(1,3,4-thiadiazol-2-yl)piperidin-3-yl)-7-methoxy-[1,2,4]triazolo[1,5-c]quinazolin-5-amine] | 1.9 nM
23 | COc1cccc2c1nc(N)n1nc([C@@H]3CCCN(c4ncns4)C3)nc21 [Example 21, (R)-2-(1-(1,2,4-thiadiazol-5-yl)piperidin-3-yl)-7-methoxy-[1,2,4]triazolo[1,5-c]quinazolin-5-amine] | 3.2 nM
24 | COc1cccc2c1nc(N)n1nc([C@@H]3CCCN(c4ncc(C)s4)C3)nc21 [Example 22, (R)-7-methoxy-2-(1-(5-methylthiazol-2-yl)piperidin-3-yl)-[1,2,4]triazolo[1,5-c]quinazolin-5-amine] | 0.8 nM
25 | COc1cccc2c1nc(N)n1nc([C@@H]3CCCN(S(=O)(=O)c4ccccc4)C3)nc21 [Example 36, (R)-7-methoxy-2-(1-(phenylsulfonyl)piperidin-3-yl)-[1,2,4]triazolo[1,5-c]quinazolin-5-amine] | 1.2 nM

Other lines, results leading:

Row | Ki | Compound
26 | 45 nM | COc1cccc2c1nc(N)n1nc([C@@H]3CCCN(CC(C)C)C3)nc21 [Example 8, (R)-2-(1-isobutylpiperidin-3-yl)-7-methoxy-[1,2,4]triazolo[1,5-c]quinazolin-5-amine]
27 | 20 nM | C#CC(C)(C)N1CCC[C@@H](c2nc3c4cccc(OC)c4nc(N)n3n2)C1 [Example 9, (R)-7-methoxy-2-(1-(2-methylbut-3-yn-2-yl)piperidin-3-yl)-[1,2,4]triazolo[1,5-c]quinazolin-5-amine]
28 | 2 nM | COc1cccc2c1nc(N)n1nc([C@@H]3CCCN(c4nnc(C)s4)C3)nc21 [Example 19, (R)-7-methoxy-2-(1-(5-methyl-1,3,4-thiadiazol-2-yl)piperidin-3-yl)-[1,2,4]triazolo[1,5-c]quinazolin-5-amine]

Source: patent publication US10822338B2, “Substituted aminoquinazoline compounds as A2A antagonist” (Merck Sharp & Dohme Corp., priority 2015, dated 2020)
